Laboratory results taken from ChEMBL document CHEMBL1201862, “PubChem BioAssay data set” (2004).
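Tested at 5 concentrations; 48 h exposure; 96-well plates; endpoints linearly interpolated, else capped at highest concentration. The concentration for 50% growth inhibition is given as GI50.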 Activity calls are given as the source filed them. Rule as the data show it: active = GI50 up to about 1.1 µM and inactive = higher.

Key:
Test in all cases: NCI tumour cell line growth inhibition, 48 h
786-0 = system: 786-0
A498 = system: A498
A549 = system: A549
ACHN = system: ACHN
BT-549 = system: BT-549
CAKI-1 = system: CAKI-1
CCRF-CEM = system: CCRF-CEM
COLO 205 = system: COLO 205
DU-145 = system: DU-145
EKVX = system: EKVX
HCC 2998 = system: HCC 2998
HCT-116 = system: HCT-116
HCT-15 = system: HCT-15
HL-60 = system: HL-60
HOP-62 = system: HOP-62
HOP-92 = system: HOP-92
HT-29 = system: HT-29
Hs-578T = system: Hs-578T
IGROV-1 = system: IGROV-1
K562 = system: K562
KM12 = system: KM12
LOX IMVI = system: LOX IMVI
M14 = system: M14
MCF7 = system: MCF7
MDA-MB-231 = system: MDA-MB-231
MDA-MB-435 = system: MDA-MB-435
MDA-N = system: MDA-N
MOLT-4 = system: MOLT-4
Malme-3M = system: Malme-3M
NCI-H226 = system: NCI-H226
NCI-H23 = system: NCI-H23
NCI-H460 = system: NCI-H460
NCI-H522 = system: NCI-H522
NCI/ADR-RES = system: NCI/ADR-RES
OVCAR-3 = system: OVCAR-3
OVCAR-4 = system: OVCAR-4
OVCAR-5 = system: OVCAR-5
OVCAR-8 = system: OVCAR-8
PC-3 = system: PC-3
RPMI-8226 = system: RPMI-8226
RXF 393 = system: RXF 393
SF-268 = system: SF-268
SF-295 = system: SF-295
SF-539 = system: SF-539
SK-MEL-28 = system: SK-MEL-28
SK-MEL-2 = system: SK-MEL-2
SK-MEL-5 = system: SK-MEL-5
SK-OV-3 = system: SK-OV-3
SN12C = system: SN12C
SNB-19 = system: SNB-19
SNB-75 = system: SNB-75
SW-620 = system: SW-620
T47D = system: T47D
TK-10 = system: TK-10
U-251 = system: U-251
UACC-257 = system: UACC-257
UACC-62 = system: UACC-62
UO-31 = system: UO-31
SR = system: SR

For `C=C1C(=O)O[C@@H]2[C@@H]3O[C@@H](C[C@@H]13)[C@](C)(O)CC/C=C(\C)CCC[C@@H]2C`, the GI50 (786-0) was 5.42 µM (inactive), the GI50 (A498) was 13.2 µM (inactive) and the GI50 (A549) was 17.4 µM (inactive). The GI50 (ACHN) was 8.91 µM (inactive), the GI50 (BT-549) was 12.6 µM (inactive) and the GI50 (CAKI-1) was 13 µM (inactive). For the same compound, the GI50 (CCRF-CEM) was 2.86 µM (inactive), the GI50 (COLO 205) was 14.7 µM (inactive) and the GI50 (DU-145) was 14.2 µM (inactive). For the same compound, the GI50 (EKVX) was 15 µM (inactive), the GI50 (HCC 2998) was 17.7 µM (inactive) and the GI50 (HCT-116) was 8.13 µM (inactive). The GI50 (HCT-15) was 11.6 µM, the GI50 (HL-60) was 2.8 µM (inactive) and the GI50 (HOP-62) was 15.9 µM (inactive). For the same compound, the GI50 (HOP-92) was 13.2 µM (inactive), the GI50 (HT-29) was 17.3 µM (inactive) and the GI50 (Hs-578T) was 17.4 µM (inactive). The GI50 (IGROV-1) was 10.2 µM (inactive), the GI50 (K562) was 4.66 µM (inactive) and the GI50 (KM12) was 16.3 µM (inactive). For the same compound, the GI50 (LOX IMVI) was 4.75 µM (inactive), the GI50 (M14) was 12.2 µM (inactive) and the GI50 (MCF7) was 7.48 µM (inactive). For the same compound, the GI50 (MDA-MB-231) was 16.6 µM (inactive), the GI50 (MDA-MB-435) was 7.87 µM (inactive) and the GI50 (MDA-N) was 4.75 µM (inactive). For the same compound, the GI50 (MOLT-4) was 3.35 µM (inactive), the GI50 (Malme-3M) was 13.3 µM (inactive) and the GI50 (NCI-H226) was 19.7 µM (inactive). For the same compound, the GI50 (NCI-H23) was 13.3 µM (inactive), the GI50 (NCI-H460) was 14.1 µM (inactive) and the GI50 (NCI-H522) was 5.87 µM (inactive). For the same compound, the GI50 (NCI/ADR-RES) was 10.6 µM (inactive), the GI50 (OVCAR-3) was 12.5 µM (inactive) and the GI50 (OVCAR-4) was 14.5 µM (inactive). The GI50 (OVCAR-5) was 22 µM (inactive), the GI50 (OVCAR-8) was 6.7 µM (inactive) and the GI50 (PC-3) was 10.4 µM (inactive). For the same compound, the GI50 (RPMI-8226) was 2.82 µM (inactive), the GI50 (RXF 393) was 13.6 µM (inactive) and the GI50 (SF-268) was 16.9 µM (inactive). The GI50 (SF-295) was 26.4 µM (inactive), the GI50 (SF-539) was 10.5 µM (inactive) and the GI50 (SK-MEL-28) was 15.8 µM (inactive). The GI50 (SK-MEL-2) was 13.3 µM (inactive), the GI50 (SK-MEL-5) was 16.4 µM (inactive) and the GI50 (SK-OV-3) was 19.3 µM (inactive). The GI50 (SN12C) was 12 µM (inactive), the GI50 (SNB-19) was 15.1 µM (inactive) and the GI50 (SNB-75) was 11.8 µM (inactive). The GI50 (SW-620) was 5.46 µM (inactive), the GI50 (T47D) was 18.7 µM (inactive) and the GI50 (TK-10) was 14.4 µM (inactive). For the same compound, the GI50 (U-251) was 10.5 µM (inactive), the GI50 (UACC-257) was 12.3 µM (inactive) and the GI50 (UACC-62) was 12.4 µM (inactive). The GI50 (UO-31) was 10.8 µM (inactive).
For `O=CNc1ccc(S(=O)(=O)c2ccc(NC=O)cc2)cc1`, the GI50 (786-0) was > 100 µM (inactive), the GI50 (A549) was > 100 µM (inactive) and the GI50 (ACHN) was > 100 µM (inactive). For the same compound, the GI50 (BT-549) was > 100 µM (inactive), the GI50 (CAKI-1) was > 100 µM (inactive) and the GI50 (CCRF-CEM) was > 100 µM (inactive). For the same compound, the GI50 (COLO 205) was > 100 µM (inactive), the GI50 (DU-145) was > 100 µM (inactive) and the GI50 (EKVX) was > 100 µM (inactive). The GI50 (HCC 2998) was > 100 µM (inactive), the GI50 (HCT-116) was > 100 µM (inactive) and the GI50 (HCT-15) was > 100 µM. For the same compound, the GI50 (HL-60) was > 100 µM (inactive), the GI50 (HOP-62) was > 100 µM (inactive) and the GI50 (HOP-92) was > 100 µM (inactive). For the same compound, the GI50 (HT-29) was > 100 µM (inactive), the GI50 (Hs-578T) was > 100 µM (inactive) and the GI50 (IGROV-1) was > 100 µM (inactive). The GI50 (K562) was > 100 µM (inactive), the GI50 (KM12) was > 100 µM (inactive) and the GI50 (LOX IMVI) was > 100 µM (inactive). For the same compound, the GI50 (M14) was > 100 µM (inactive), the GI50 (MCF7) was > 100 µM (inactive) and the GI50 (MDA-MB-231) was > 100 µM (inactive). The GI50 (MDA-MB-435) was > 100 µM (inactive), the GI50 (MDA-N) was > 100 µM (inactive) and the GI50 (MOLT-4) was > 100 µM (inactive). The GI50 (Malme-3M) was > 100 µM (inactive), the GI50 (NCI-H23) was > 100 µM (inactive) and the GI50 (NCI-H460) was > 100 µM (inactive). The GI50 (NCI-H522) was > 100 µM (inactive), the GI50 (NCI/ADR-RES) was > 100 µM (inactive) and the GI50 (OVCAR-3) was > 100 µM (inactive). The GI50 (OVCAR-4) was > 100 µM (inactive), the GI50 (OVCAR-5) was > 100 µM (inactive) and the GI50 (OVCAR-8) was > 100 µM (inactive). The GI50 (PC-3) was > 100 µM (inactive), the GI50 (RPMI-8226) was > 100 µM (inactive) and the GI50 (SF-268) was > 100 µM (inactive). The GI50 (SF-295) was > 100 µM (inactive), the GI50 (SF-539) was > 100 µM (inactive) and the GI50 (SK-MEL-28) was > 100 µM (inactive). The GI50 (SK-MEL-2) was > 100 µM (inactive), the GI50 (SK-MEL-5) was > 100 µM (inactive) and the GI50 (SK-OV-3) was > 100 µM (inactive). The GI50 (SN12C) was > 100 µM (inactive), the GI50 (SNB-19) was > 100 µM (inactive) and the GI50 (SNB-75) was 29.7 µM (inactive). The GI50 (SR) was > 100 µM (inactive), the GI50 (SW-620) was > 100 µM (inactive) and the GI50 (T47D) was > 100 µM (inactive). The GI50 (TK-10) was > 100 µM (inactive), the GI50 (U-251) was > 100 µM (inactive) and the GI50 (UACC-257) was > 100 µM (inactive). The GI50 (UACC-62) was > 100 µM (inactive) and the GI50 (UO-31) was > 100 µM (inactive).
For `CCN(CC)CCCC(C)Nc1ccnc(/C=C/c2ccc(Cl)cc2)c1` (stereo not given), the GI50 (786-0) was 1.41 µM (inactive), the GI50 (A549) was 1.91 µM (inactive) and the GI50 (ACHN) was 3.32 µM (inactive). For the same compound, the GI50 (BT-549) was 2.19 µM (inactive), the GI50 (CAKI-1) was 2.29 µM (inactive) and the GI50 (CCRF-CEM) was 1.2 µM (inactive). For the same compound, the GI50 (COLO 205) was 1.35 µM (inactive), the GI50 (DU-145) was 9.08 µM (inactive) and the GI50 (EKVX) was 4.2 µM (inactive). For the same compound, the GI50 (HCC 2998) was 1.95 µM (inactive), the GI50 (HCT-116) was 1.72 µM (inactive) and the GI50 (HCT-15) was 1.82 µM. The GI50 (HL-60) was 2.07 µM (inactive), the GI50 (HOP-62) was 1.84 µM (inactive) and the GI50 (HOP-92) was 1.26 µM (inactive). For the same compound, the GI50 (HT-29) was 3.49 µM (inactive), the GI50 (Hs-578T) was 2.26 µM (inactive) and the GI50 (IGROV-1) was 2.17 µM (inactive). The GI50 (K562) was 0.135 µM (active), the GI50 (KM12) was 2.02 µM (inactive) and the GI50 (LOX IMVI) was 1.26 µM (inactive). For the same compound, the GI50 (M14) was 1.11 µM (active), the GI50 (MCF7) was 2.55 µM (inactive) and the GI50 (MDA-MB-231) was 0.497 µM (active). For the same compound, the GI50 (MDA-MB-435) was 1.56 µM (inactive), the GI50 (MDA-N) was 1.83 µM (inactive) and the GI50 (MOLT-4) was 1.22 µM (inactive). The GI50 (Malme-3M) was 1.21 µM (inactive), the GI50 (NCI-H23) was 10.1 µM (inactive) and the GI50 (NCI-H460) was 2.69 µM (inactive). The GI50 (NCI-H522) was 1.63 µM (inactive), the GI50 (NCI/ADR-RES) was 3.12 µM (inactive) and the GI50 (OVCAR-3) was 1.63 µM (inactive). The GI50 (OVCAR-4) was 3.51 µM (inactive), the GI50 (OVCAR-5) was 2.61 µM (inactive) and the GI50 (OVCAR-8) was 3.43 µM (inactive). For the same compound, the GI50 (PC-3) was 1.56 µM (inactive), the GI50 (RPMI-8226) was 1.72 µM (inactive) and the GI50 (SF-268) was 3.06 µM (inactive). The GI50 (SF-295) was 3.02 µM (inactive), the GI50 (SF-539) was 1.67 µM (inactive) and the GI50 (SK-MEL-28) was 1.7 µM (inactive). The GI50 (SK-MEL-2) was 2.11 µM (inactive), the GI50 (SK-MEL-5) was 3.23 µM (inactive) and the GI50 (SK-OV-3) was 3.61 µM (inactive). For the same compound, the GI50 (SN12C) was 2.07 µM (inactive), the GI50 (SNB-19) was 3.4 µM (inactive) and the GI50 (SNB-75) was 1.77 µM (inactive). The GI50 (SR) was 2.3 µM (inactive), the GI50 (SW-620) was 1.54 µM (inactive) and the GI50 (T47D) was 1.93 µM (inactive). For the same compound, the GI50 (TK-10) was 2.38 µM (inactive), the GI50 (U-251) was 1.66 µM (inactive) and the GI50 (UACC-257) was 2.02 µM (inactive). For the same compound, the GI50 (UACC-62) was 1.94 µM (inactive) and the GI50 (UO-31) was 1.52 µM (inactive).
